Laboratory results published in patent US8912121B2, “Herbicidal compositions comprising 4-amino-3-chloro-5-fluoro-6-(4-chloro-2-fluoro-3-methoxyphenyl)pyridine-2-carboxylic acid or a derivative thereof and certain PS II inhibitors” (Dow Agrosciences LLC, priority 2012, dated 2014).

Test system: BRAPP (Brachiaria platyphylla, broadleaf signalgrass)
Assay: Pre-emergence soil-applied mixtures, greenhouse
Format: in vivo, Brachiaria platyphylla (Groseb.) Nash
Description: Seeds or nutlets of the desired test plant species were planted in a soil matrix prepared by mixing a loam soil (32 percent silt, 23 percent clay, and 45 percent sand, with a pH of about 6.5 and an organic matter content of about 1.9 percent) and calcareous grit in an 80 to 20 ratio. The soil matrix was contained in plastic pots with a volume of 1 quart and a surface area of 83.6 square centimeters (cm^2).
Treatments consisted of the benzyl ester of 4-amino-3-chloro-5-fluoro-6-(4-chloro-2-fluoro-3-methoxy-phenyl)pyridine-2-carboxylic acid (compound A) formulated as an SC (suspension concentrate) and various herbicidal components alone and in combination. Forms of compound A were applied on an acid equivalent basis.
Other herbicidal components were applied on an acid equivalent or active ingredient basis and included the PSII-inhibiting herbicides, atrazine formulated as Atrazine® 90WDG, metribuzin formulated as Metribuzin 75DF, simazine formulated as Princep Caliber 90, tebuthiuron formulated as Spike 80DF, cyanazine (technical grade material), hexazinone (technical grade material), linuron (technical grade material), terbuthylazine (technical grade material), and diuron formulated as Diuron 4L.
Treatment requirements were calculated based upon the rates being tested, the concentration of active ingredient or acid equivalent in the formulation, and a 12 mL application volume at a rate of 187 L/ha.
For treatments comprised of formulated compounds, measured amounts of compounds were placed individually in 25 mL glass vials and diluted in a volume of 1.25% (v/v) Agri-Dex® crop oil concentrate (COC) to obtain 12× stock solutions. […] Application solutions were prepared by adding an appropriate amount of each stock solution (e.g., 1 mL) and diluted to the appropriate final concentrations with the addition of 10 mL of an aqueous mixture of 1.25% (v/v) COC so that the final spray solutions contained 1.25% (v/v) COC.
For treatments comprised of technical compounds, weighed amounts can be placed individually in 25 mL glass vials and dissolved in a volume of 97:3 (v/v) acetone/DMSO to obtain 12× stock solutions. […] Application solutions can be prepared by adding an appropriate amount of each stock solution (e.g., 1 mL) and diluted to the appropriate final concentrations with the addition of 10 mL of an aqueous mixture of 1.5% (v/v) COC so that the final spray solutions contain 1.25% (v/v) COC. When technical materials are used, the concentrated stock solutions can be added to the spray solutions so that the final acetone and DMSO concentrations of the application solutions are 16.2% and 0.5%, respectively.
For treatments comprised of formulated and technical compounds, weighed amounts of the technical materials can be placed individually in 25 mL glass vials and dissolved in a volume of 97:3 (v/v) acetone/DMSO to obtain 12× stock solutions, and measured amounts of the formulated compounds can be placed individually in 25 mL glass vials and diluted in a volume of 1.5% (v/v) COC or water to obtain 12× stock solutions. […] Application solutions can be prepared by adding an appropriate amount of each stock solution (e.g., 1 mL) and diluted to the appropriate final concentrations with the addition of an appropriate amount of an aqueous mixture of 1.5% (v/v) COC so that the final spray solutions contain 1.25% (v/v) COC. As required, additional water and/or 97:3 (v/v) acetone/DMSO can be added to individual application solutions so that the final acetone and DMSO concentrations of the application solutions being compared are 8.1% and 0.25%, respectively.
All stock solutions and applications solutions were visually inspected for compound compatibility prior to application. Spray solutions were applied to the soil with an overhead Mandel track sprayer equipped with a 8002E nozzles calibrated to deliver 187 L/ha over an application area of 0.503 m^2 at a spray height of 18 inches (46 cm) above average pot height. […]

## COc1c(Cl)ccc(-c2nc(C(=O)OCc3ccccc3)c(Cl)c(N)c2F)c1F [Compound A Benzyl Ester, benzyl ester of 4-amino-3-chloro-5-fluoro-6-(4-chloro-2-fluoro-3-methoxy-phenyl)pyridine-2-carboxylic acid]
Compound A Benzyl Ester 16 g ae/ha, Table 28
  Visual Weed Control (%) - 27 DAA BRAPP Obs: 0%
Compound A Benzyl Ester 16 g ae/ha
  Visual Weed Control (%)-28 DAA BRAPP Obs: 0%
Compound A Benzyl Ester 32 g ae/ha, Table 27
  Visual Weed Control (%) - 27 DAA BRAPP Obs: 0%
Compound A Benzyl Ester 32 g ae/ha, Table 28
  Visual Weed Control (%) - 27 DAA BRAPP Obs: 0%
Compound A Benzyl Ester 32 g ae/ha
  Visual Weed Control (%)-28 DAA BRAPP Obs: 5%
